Data: US6766183B2, “Long wave fluorophore sensor compounds and other fluorescent sensor compounds in polymers” (Medtronic MiniMed, Inc., priority 1995, dated 2004)

Assays:
[1] = Glucose transduction in PBS, relative fluorescent intensity (FIG. 18 format)
Method: FIG. 18 is a graph showing Nile Blue boronate's transduction of glucose in PBS.
The figures provided herein further illustrate various embodiments of the invention and their properties in order to further facilitate artisans' making and using the invention. For example, using the graphic format provided in FIG. 18, experiments confirming properties of Nile Blue were performed with the following results: […]

[2] = Fluorescence excitation and emission wavelengths; format: physicochemical; conditions: aqueous PBS; for maximum emission wavelength: irradiated at 621 nm
Source text: An exemplary oxazine-based biosensor molecule of the present invention utilizes Nile blue as the fluorophore as shown in FIG. 2. The Nile blue-based biosensor molecule has an excitation wavelength of about 625 nm and a maximum emission wavelength of about 675 nm (see, e.g. FIGS. 8). Similar oxazine-based fluorophores suitable for use in embodiments of the present invention may include one or more functional groups selected from the following: aliphatic, aromatic, haloalkane, alcohol, ether, amine, cyano, nitro group, aldehyde, ketone, ester, carboxylic acid, sulfonic acid and phosphoric acid functional groups.
As illustrated above, the oxazine-based molecules in accordance with embodiments of the invention solve the problem of obtaining optimal optical transmission of fluorescence via implanted fluorescent reporter systems of in-vivo polyhydroxylate analyte concentrations. […] Particular embodiments of the biosensor molecules of the invention have at least one maximum wavelength in their emission spectra that is greater than about 600 nm and have at least one wavelength in their emission spectra that is greater than about 650 nm. An exemplary oxazine-based biosensor molecule in accordance with embodiments of the invention utilizes Nile Blue as a fluorophore. This Nile Blue biosensor molecule generally has an excitation wavelength of about 625 nm and an emission wavelength of about 675 nm in an aqueous Phosphate Buffered Saline (PBS) solution. Particular embodiments of the invention, however, may emit in the near infrared (IR) region of the spectrum.
Results: After work-up, the reaction was concentrated to dryness. A sample of the blue residue (˜1 mg), dissolved in DMSO (1 ml), was aliquoted (100 □ L) and dissolved in PBS (20 mL). A sample PBS solution (3 mL) contained in a cuvette and irradiated at 621 nm, gave rise to the appearance of a maximum emission peak at 671 nm. Successive additions of glucose (150 mg/dL), added to the cuvette, led to an increase in […] intensity, at 671 nm, after each addition. The first addition of glucose gave rise to a 7.5% increase in fluorescence at 671 nm. After the second addition of glucose, the intensity rose 14.3% relative to the blank. Addition of the third aliquot of glucose gave an 18.8% rise in fluorescent intensity relative to the blank. […] A control fluorescence experiment was performed containing Nile Blue A using the same conditions as mentioned above.

[3] = Glucose transduction of Nile Blue boronate: fluorescence in DMSO/PBS, ex 621 nm, em 671 nm; conditions: for fluorescent intensity increase at 671 nm: ex 621 nm, relative to blank, listed as 1; for fluorescent intensity increase at 671 nm / increase in fluorescent intensity at 671 nm: DMSO/PBS; for increase in fluorescent intensity at 671 nm: separate batch
Method: A typical embodiment of the invention uses Nile Blue as an illustrative oxazine-based fluorophore.
Results: After work-up, the reaction was concentrated to dryness. A sample of the blue residue (˜1 mg), dissolved in DMSO (1 ml), was aliquoted (100 □ L) and dissolved in PBS (20 mL). […] A control fluorescence experiment was performed containing Nile Blue A using the same conditions as mentioned above.
(§1) To a round bottom flask, equipped with a reflux condenser under N2, containing Nile Blue perchlorate salt (42 mg, 0.1 mmol), boronate (28 mg, 0.1 mmoles) and K2CO3 (˜1 g) was added CH3CN (25 mL). The reaction was heated at reflux for 24 hours after which the solvent evaporated and the reaction went to dryness. The sample of the reaction mixture (1 mg, 2.21 mole) was dissolved in DMSO (1 mL). An aliquot (100 μL) was dissolved in PBS (20 mL). A sample of this solution (3 mL) was placed into the fluorolog and fluorescent measurements were made (ex=621 nm, slits at 10 and 20) at various glucose concentrations (0 mg/dL, 150 mg/dL, 300 mg/dL and 450 mg/dL) with a sampling interval of 45 min.
as §1, with “(22” for “(28”, “The reaction was heated at reflux for 24 hours after which the solvent evaporated and the reaction went to dryness.” left out, “[…])” for “mole)”
as §1, with “[…])” for “mole)”

Water solubility = format: physicochemical
Source text: Exemplary long wavelength glucose-sensing molecule containing an oxazine (Nile Blue) coupled with a phenyl boronate suitable for detection of glucose, following polymer incorporation, in vivo is shown in FIGS. 2 and 3. FIG. 2 provides a comparison of fluorescent excitations of representative fluorophores including the oxazine Nile Blue. The excitation and emission profile of anthracene based compounds are well below that of Nile Blue's fluorescent profile (see, e.g., FIG. 3). […] It is feasible to substitute other oxazines of similar structure for Nile Blue.

Q: Which results are given for Nile Blue A?
A: relative fluorescent intensity ([1]; glucose 0 mg/dl): 1.0; relative fluorescent intensity ([1]; glucose 150 mg/dl): 1.085; relative fluorescent intensity ([1]; glucose 300 mg/dl): 1.239; relative fluorescent intensity ([1]; glucose 450 mg/dl): 1.398; relative fluorescent intensity ([1]; glucose 1000 mg/dl): 1.513

Q: Which results are given for Nile Blue Boronate?
A: excitation wavelength [2]: about 625 nm; maximum emission wavelength ([2]; listed as 1): 671 nm; maximum emission wavelength ([2]; listed as Nile Blue biosensor molecule): about 675 nm; maximum emission wavelength ([2]; listed as Nile blue-based biosensor molecule): about 675 nm; fluorescent intensity increase at 671 nm ([3]; glucose 150 mg/dL): 7.5%; fluorescent intensity increase at 671 nm ([3]; glucose 300 mg/dL): 14.3%; fluorescent intensity increase at 671 nm ([3]; glucose 450 mg/dL): 18.8%; glucose transduction ([3]; in water): transduces glucose exceptionally well; increase in fluorescent intensity at 671 nm ([3]; glucose 150 mg/dL (first addition)): 23.4%; increase in fluorescent intensity at 671 nm ([3]; glucose 300 mg/dL (second addition)): 37.8%; increase in fluorescent intensity at 671 nm ([3]; glucose 450 mg/dL (third addition)): 47.4%

Q: For CC[N+](CC)=c1ccc2nc3c(cc(N)c4ccccc43)oc-2c1 [Nile Blue, Nile Blue A, reference compound], which solubility in water (Water solubility) is on record?
A: The solubility in water was “highly soluble in water”.

Q: What about the “glucose transduction (control experiment)” value ([3]; DMSO/PBS solutions, same conditions as the boronate) of the same molecule?
A: The value was “incapable of transducing glucose”.
